In US5278285A, “Variant of Kunitz-type inhibitor derived from the α3-chain of human type VI collagen produced by recombinant DNA technology” (Bayer Aktiengesellschaft, priority 1990, dated 1994):

Tests used:
[1] = application during open heart surgery, clinical studies; cited from earlier work
human trypsin = assay: Trypsin inhibition assay; format: biochemical; conditions: substrate benzoyl-L-arginine p-nitroanilide; product expressed in yeast
Procedure: The trypsin activity was determined using the method of geiger & Fritz, Methods of Enzymatic Analysis, Vol. V, 3rd ed., Bergmeyer (ed.), Verlag Chemie, Weinheim (1984), p. 121 with benzoyl-L-arginine p-nitroanilide as substrate. The liberated p-nitroaniline was measured in a spectrophotometer at 405 nm. Enzyme and inhibitor were preincubated for 15 min before addition of the substrate.

Substance | blood loss [1] | trypsin inhibition (biological activity) (human trypsin)
aprotinin | reduces blood loss significantly | 
α3(VI) inhibitor: Kunitz type proteinase inhibitor, aminoacid pos. 2873 to 2931 of the C5 domain of human type VI collagen α3 chain, expressed in yeast (pKol 100) |  | inhibits human trypsin
